The record followed here is US20100248365A1, “GANGLIOSIDE BIOSYNTHESIS MODULATORS” (ZACHARON PHARMACEUTICALS, INC., priority 2009, published 2010).

For assay [1], the system named is primary human fibroblasts from Sandhoff patients. Kind of assay: GM2 storage in gangliosidosis fibroblasts (Sandhoff), GSL analysis by HPLC. The conditions noted are these: 30 uM, 13 days of treatment. It is filed as cell-based. The protocol:
Human gangliosidosis fibroblast cells are obtained e.g., from Coriell Institute for Medical Research (http://ccr.coriell.org). The primary cells are cultured in minimum essential medium (MEM) with 15% fetal bovine serum (FBS) as instructed by the supplier.
The fibroblast cells are cultured in 6 well plates at a density of 5.0E05/well in MEM, 15% FBS. The cells are treated with compounds at 30 uM on the next day of culture. The non-selective glycolipid inhibitors PDMP and DGNJ, which inhibit glucosylceramide synthase, are used as control. All the treatments are performed in triplicate. The medium is changed every 5 days with fresh compounds added. After 13 days of treatment with compounds, the cells are harvested for GSL analysis. The conditioned medium is removed, the monolayer is washed with PBS and detached with 5 mM EDTA in PBS. An aliquot of the cell suspension is taken for cell viability count using Viacount.
The cells are spun down and the cell pellets are resuspended in water for GSL extraction. The cells are homogenized using a homogenizer at 6500 rpm for 30 seconds twice. Gangliosides are extracted from homogenates by using chloroform:methanol:water (4:8:3) followed by partitioning. The ganglioside containing upper phase is taken and dried down in a SpeedVac.
Purified total GSLs are subjected to endo-glucoceramidase (EGCase II, Sigma) treatment to release free glycans. ˜10 ug protein equivalent GSL is digested with 1 mU EGCaseII in 15 ul incubation buffer containing 50 mM sodium acetate, pH 5.5 and 0.4% TX100. Digestion is performed at 37° C. overnight. Released free glycans are tagged with anthranilic Acid (2-AA, Sigma). A labeling mix is prepared freshly in 4% sodium acetate (NaAc.3H2O) and 2% boric acid/methanol(w/v) by adding 45 mg NaBH3CN first and then adding 30 mg 2AA in a 1 ml solution. 40 ul of this labeling mix is added directly into digestion mix. The labeling is carried out at 80° C. for 45˜60 min. Free labeling reagents are removed by passing the reaction mix through a Discovery DPA-6S (Sigma) column. The DPA-6S column (50 mg) is pre-equilibrated twice with 1 ml acetonitrile (ACN). The reaction mixture is cooled down, 1 ml of 97% ACN is added, and the sample is loaded onto the column. The column is washed with four times with 1 ml of 99% ACN and once with 0.5 ml of 97% ACN. 2AA-glycans are eluted in two time 600 ul water. The eluates are dried down in a SpeedVac and subjected to HPLC analysis.
Purified 2-AA-labeled oligosaccharides are analyzed by HPLC an method as described by Neville et al. (Anal. Biochem, 2004, 331:275-282). 2-AA-oligosaccharides are separated by NP-HPLC using a 5 μm 4.6×250 mm TSK gel-Amide 80 column (Tosoh) on a Waters Alliance 2690 separation module equipped with a Waters 2475 fluorescence detector set at Exλ360 nm and Emλ425 nm. Solvent A is 80% ACN and 20% 100 mM ammonium acetate (AmAc), pH 3.85. Solvent B is 60% Milli-Q water, 20% ACN and 20% 100 mM AmAc, pH 3.85. The gradient profile is listed below. Glucose unites are determined based on a 2-AA-labeled glucose ladder (Ludger, UK).

The next assay concerns NCI-H82 cells. The assay can be described thus: Ganglioside profiling of compound-treated NCI-H82 cells (GSL extraction, 2AA labeling, NP-HPLC). It is filed as cell-based. The settings on record: for cellular inhibition of specific ganglioside biosynthesis: NCI-H82 cells, 25, 12 and 6 uM, 96 hours, HPLC peaks; for preferential reduction effect on gangliosides GM3 and GD3: relative to other ganglioside species. The protocol: NCI-H82 cells were cultured in 6 well plates and treated with compounds at a concentration of 25, 12 and 6 uM in triplicates. PDMP (1-Phenyl-2-decanoylamino-3-morpholino-1-propanol, HCl, EMD #513100) at 25, 12, 6 uM and DGNJ (N-(n-Butyl) deoxygalactonojirimycin, EMD #203994) at 50 uM were used as controls. After 96 hours of compounds treatment the cells were harvested for ganglioside profiling. The suspension cells were centrifuged and the pellets washed once with PBS. Cells were resuspended in 1 ml of PBS, 1/100 of cells were taken to check the cell viability (Viacount)) and for glycosphingolipid (GSL) quantitation and normalization. 1/10 of cells were taken for CTB-FACS to check GM1 expression. The remaining cells were subjected to the ganglioside extraction procedure follow the protocol described by R. Schnaar (Methods in Enzymology, 230: 348-370, 1994).
Briefly, the cells were pelleted by centrifugation and resuspended in cold distilled-water. The cell suspension was homogenized with Polytron homogenizer. Glycolipids were extracted with chloroform:methanol:water at 4:8:3 ratio. Glycolipids were partitioned by adding 0.173 volume of water to extracted the supernatant. The upper […] phase (glycolipids) was dried in a vacuum centrifuge (SpeedVac).
Glycans were released from the glycolipids using the enzyme EGCase II (Sigma, Cat #E9030) as described by the manufacture. Released glycans were labeled with 2AA (2-Anthranilic acid, Sigma, Cat #A89804) following the procedures described by D. Neville (Analytical Biochemistry, 331 (2004) 275-282). Non-incorporated 2AA was removed by column chromatography (Discovery DPA-6S). Briefly, the extracted GSLs were digested with EGCase in a 10 ul reaction volume overnight. 40 ul of labeling mix (30 mg/ml 2-AA, 45 mg/ml […] in 4% NaAc and 2% boric acid in methano) were added. The reaction was carried at 80° C. for 45 min. 2AA-labeled glycans were purified by column chromatography (Discovery DPA-6S). The column was preequilibrated with 2×1 ml 97% acetonitrile (ACN) and the sample was loaded by adding 1 ml 97% ACN to the reaction mix. The column was washed 4× with 1 ml 97% ACN and the 2AA-labeled […] were eluted with 2×0.6 ml water. After drying down (SpeedVac), the sample were resuspended and analyzed by normal phase high performance liquid chromatography (NP-HPLC).
Purified 2AA-GSL glycans were separated on NP-HPLC using a 4.6×250 mm TSK Gel-Amide-80 column (Tosoh Bioscience). The chromatography system consisted of a Waters Alliance 2690/5 separation module and an in-line Waters 2475 fluorescence detector set at Exλ360 nm and Emλ425 nm. All chromatography was performed at 30° C. Solvent A was 20% 100 mM ammonium acetate pH3.85, 80% Acetonitrile, solvent B was 20% 100 mM ammonium acetate pH3.85, 20% ACN and 60% Milli-Q water. The gradient was run from 86% A to 54.7% A in 55 min at flow rate 0.8˜1.2 ml/min (Analytical Biochemistry, 331 (2004) 275-282). Chromatography data was processed using Waters Empower software. Glucose units were determined based on a 2AA-labeled glucose oligomer ladder (Ludger). All 2AA-GSL standards were prepared in house and labeled as glucose units.
FIGS. 18-25 illustrate the dose dependent effects on individual gangliosides (individual HPLC peaks) of various compounds as determined according to the methods of Example 5, but with additional and slightly altered concentration levels used for test compound dosing.

Setting [2] is: NCI-H82 cells, HPLC peak area as % of untreated.
The mark [3] stands for this setting: NCI-H82 cells, HPLC peak areas as % of untreated.

On to `CCCCN1C[C@H](O)[C@@H](O)[C@@H](O)[C@H]1CO` [DGNJ, N-(n-Butyl) deoxygalactonojirimycin, reference compound], for which the “reduction of GM2 storage in primary human fibroblasts from Sandhoff patients” value (“reduction of GM2 storage” below) in assay [1] is “reduction”. `CCCCCCCCCC(=O)NC(CN1CCOCC1)C(O)c1ccccc1` (stereo not drawn) [PDMP, 1-Phenyl-2-decanoylamino-3-morpholino-1-propanol, reference compound]: the “cellular inhibition of specific ganglioside biosynthesis” value (shortened to “cellular inhibition”) with NCI-H82 cells was “inhibition”. Besides, in assay [1], the “reduction of GM2 storage” value is “reduction”.

`CN(C)c1ccc(-c2nc3c(C(C)(C)C)cc(C(C)(C)C)c(O)c3o2)cc1` [compound 2, 4,6-di-tert-butyl-2-(4-(dimethylamino)phenyl)benzo[d]oxazol-7-ol]: the “cellular inhibition” value with NCI-H82 cells is given as “inhibition”. In the assay with NCI-H82 cells (setting [2]), the “dose dependent reduction effect on ganglioside GD1b” value was “dose dependent reduction”. With `CSc1ccc(-c2ncnn2-c2sc3c(c2C#N)CCCCC3)cc1` [compound 3, 2-(5-(4-(methylthio)phenyl)-1H-1,2,4-triazol-1-yl)-5,6,7,8-tetrahydro-4H-cyclohepta[b]thiophene-3-carbonitrile], the “preferential reduction effect on gangliosides GM3 and GD3” value with NCI-H82 cells (NCI-H82 cells) was “preferential reduction”. Further, in assay [1], the “reduction of GM2 storage” value is recorded as “reduction”. With `N#Cc1c(-n2ncnc2-c2ccc(F)cc2)sc2c1CCCCC2` [compound 4, 2-(5-(4-fluorophenyl)-1H-1,2,4-triazol-1-yl)-5,6,7,8-tetrahydro-4H-cyclohepta[b]thiophene-3-carbonitrile], the “dose dependent reduction effect on ganglioside GD3” value in the assay on NCI-H82 cells (setting [2]) is given as “dose dependent reduction”. For the same compound, in the assay with NCI-H82 cells (setting [3]), the “reduction in B series gangliosides relative to A series gangliosides” value is given as “reduction”. `CC(C)(C)c1cc(C(C)(C)C)c2nc(-c3cc(Br)ccc3O)oc2c1O` [compound 5, 2-(5-bromo-2-hydroxyphenyl)-4,6-di-tert-butylbenzo[d]oxazol-7-ol]: the “dose dependent reduction effect on ganglioside GD2” value with NCI-H82 cells (setting [2]) is “dose dependent reduction”. Further, in the assay on NCI-H82 cells (setting [3]), the “preferential reduction effect on 2 series gangliosides GM2 and GD2 relative to the 3 series gangliosides GM3 and GD3” value is “preferential reduction”. Further, the “reduction of GM2 storage” value in assay [1] is “reduction”. In the case of `CC1=C(C(=O)Nc2ccccc2)C(c2ccccc2)C(C#N)=C(SCC(=O)NCc2ccccc2)N1` (stereo not drawn) [compound 7, 6-(2-(benzylamino)-2-oxoethylthio)-5-cyano-2-methyl-N,4-diphenyl-1,4-dihydropyridine-3-carboxamide], the “reduction of GM2 storage” value in assay [1] is “reduction”. Regarding `CC(C)CNc1oc(-c2cccs2)nc1C#N` [compound 8, 5-(isobutylamino)-2-(thiophen-2-yl)oxazole-4-carbonitrile], in the assay with NCI-H82 cells (NCI-H82 cells), the “preferential reduction effect on gangliosides GM3 and GD3” value is “preferential reduction”. In addition, in assay [1], the “reduction of GM2 storage” value is reported as “reduction”. For `COc1cc(/C=C/c2ccc3cccc(OCc4ccccc4)c3n2)cc([N+](=O)[O-])c1OC(C)=O` [compound 15, (E)-4-(2-(8-(benzyloxy)quinolin-2-yl)vinyl)-2-methoxy-6-nitrophenyl acetate], in the assay with NCI-H82 cells, the “cellular inhibition” value was “inhibition”. Consider `Cc1ccc(C=NN2CCN(c3ccc(Cl)cc3)CC2)o1` [compound 17, 4-(4-chlorophenyl)-N-((5-methylfuran-2-yl)methylene)piperazin-1-amine], for which the “cellular inhibition” value with NCI-H82 cells was “inhibition”. Further, in the assay with NCI-H82 cells (setting [2]), the “dose dependent reduction effect on ganglioside GM3” value is on record as “dose dependent reduction”. The “reduction of GM2 storage” value in assay [1] is “reduction”. As to `CC(C)(C)C1=CC(=Nc2ccc(Br)cc2)C=C(C(C)(C)C)C1=O` [compound 18, 4-(4-bromophenylimino)-2,6-di-tert-butylcyclohexa-2,5-dienone], in the assay with NCI-H82 cells (setting [2]), the “dose dependent reduction effect on ganglioside GM2” value is on record as “dose dependent reduction”.

For the compound `COc1cccc(-c2nc3c(C(C)(C)C)cc(C(C)(C)C)c(O)c3o2)c1OC` [compound 20, 4,6-di-tert-butyl-2-(2,3-dimethoxyphenyl)benzo[d]oxazol-7-ol], the “reduction of GM2 storage” value in assay [1] is “reduction”.
